Data as given in patent US8394971B2, “Indole derivatives as selective androgen receptor modulators (SARMS)” (Janssen Pharmaceutica N.V., priority 2004, dated 2013).
Where “and” joins values, the source holds several entries; their conditions need not be identical. Equal values may be shown once.

Experiments:
[1] = target: T1, androgen receptor (adenovirus AdEasy+rAR in L929 cells) (Rattus norvegicus, UniProt P15207); assay: L929 Androgen Receptor Functional Assay, Adenovirus Transduction; assay type: cell-based; details: for % Activity: L929 agonist testing
T1 construct: expressed in transfected cells
T1 sequence (P15207 1-902): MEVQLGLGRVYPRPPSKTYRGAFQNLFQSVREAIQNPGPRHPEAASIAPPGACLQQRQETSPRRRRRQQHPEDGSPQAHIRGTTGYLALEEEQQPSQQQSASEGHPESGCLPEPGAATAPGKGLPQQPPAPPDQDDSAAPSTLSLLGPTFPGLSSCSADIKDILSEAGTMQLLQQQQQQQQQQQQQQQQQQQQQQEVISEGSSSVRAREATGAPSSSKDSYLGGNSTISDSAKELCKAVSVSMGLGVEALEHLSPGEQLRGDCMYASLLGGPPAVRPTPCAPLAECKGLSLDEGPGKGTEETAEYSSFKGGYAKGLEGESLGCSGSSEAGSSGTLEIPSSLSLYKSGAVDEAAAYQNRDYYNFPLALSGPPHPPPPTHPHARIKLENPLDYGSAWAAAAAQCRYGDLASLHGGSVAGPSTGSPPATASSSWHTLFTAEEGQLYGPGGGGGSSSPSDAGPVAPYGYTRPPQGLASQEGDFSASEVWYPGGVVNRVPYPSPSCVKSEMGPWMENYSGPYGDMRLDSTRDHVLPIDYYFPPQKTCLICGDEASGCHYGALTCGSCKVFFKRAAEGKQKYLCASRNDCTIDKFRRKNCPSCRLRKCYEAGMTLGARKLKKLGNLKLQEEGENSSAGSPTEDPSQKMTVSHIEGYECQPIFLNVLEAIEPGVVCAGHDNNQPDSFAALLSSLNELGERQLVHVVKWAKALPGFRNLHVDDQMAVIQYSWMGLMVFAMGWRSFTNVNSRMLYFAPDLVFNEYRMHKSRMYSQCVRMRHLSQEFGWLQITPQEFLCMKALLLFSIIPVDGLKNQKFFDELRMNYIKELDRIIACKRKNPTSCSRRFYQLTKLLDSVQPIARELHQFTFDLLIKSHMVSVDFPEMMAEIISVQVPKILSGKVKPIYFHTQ
Description: L929 cells were plated in 96-well plates at 20,000 cells per well, in DMEM/F12 (GIBCO) containing 10% (v/v) charcoal-treated fetal bovine serum (Hyclone) and lacking phenol red. The plates were then incubated overnight at 37° C. in 5% (v/v) humidified CO2.
Test compound dilutions were prepared in 100% (v/v) DMSO, if necessary. Each dilution was made to 1250× the final desired assay concentration.
First, 2 mL of DMEM/F12 lacking phenol red was pipetted into the wells of a 2-mL 96-well assay block. Next, 4 μL of the 1250× test compound dilutions were pipetted into each well of the assay block. The mixtures within the well were then carefully mixed by pipette.
In a 15 mL or 50 mL sterile centrifuge tube, a 2.5 nM (2.5×) dilution of R1881 (methyl-trienolone) in DMEM/F12 lacking phenol red was prepared.
In a second 15 mL or 50 mL centrifuge tube a solution containing an equal volume of DMEM to the first and an equal volume of 100% (v/v) DMSO to the volume of R1881 used in the first tube was prepared.
In a 15 mL or 50 mL sterile centrifuge tube, a dilution in DMEM/F12 of the adenovirus AdEasy+rAR at an moi of 1:500 per well was prepared.
The medium was removed from the 96-well plates by inversion and dried, inverted, very briefly. As soon as possible after medium removal, 40 μL of the diluted unlabeled test compound was added to each well, in duplicate. To each well designated for antagonist testing was added 40 μL of the 2.5 nM R1881 dilution to the wells for antagonist testing. To each well designated for agonist testing was added 40 μL of the DMSO dilution. Then 20 μL of the diluted adenovirus were added to all wells. The plates were incubated for 48 hours at 37° C. in 5% (v/v) humidified CO2.
To each well was added 100 μL of Steady-Glo luciferase assay substrate (Promega) and the plates were placed on a rotary shaker for 1 min. The plates were then incubated at room temperature in the dark for one hour. The contents of each well were then transferred to a white microtiter plate (Packard) and read on a Luminoskan Ascent (Thermo Lab Systems).
L929 AR percent activity was determined by testing dilutions of the test compound using a concentration of 3000 nM unless otherwise noted. L929 percent inhibition was determined by testing dilutions of the test compound using a concentration of 3000 nM. […] Luciferase activity per well were measured and EC50s and IC50s determined by linear regression.

[2] = tested on: testosterone-enhanced ventral prostate and seminal vesicle weights in castrated male Sprague Dawley rats; assay: Ventral Prostate and Seminal Vesicle Weight In Vivo Assay; design: species or system rat; details: immature castrated rats; once daily for five days, usually orally at 40 mg/kg, with testosterone propionate 2 mg/kg s.c.
Summary of the method: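 Immature (~50 g) castrated Sprague Dawley rats dosed once daily for five days with compound (usually oral, 40 mg/kg, cyclodextrin or methylcellulose vehicle) plus testosterone propionate 2 mg/kg s.c. Wet ventral prostate and seminal vesicle weights taken on day six; activity judged by prostate weight or body-weight-adjusted % inhibition.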

[3] = target: T2, androgen receptor (adenovirus AdEasy+rAR in COS-7 cells) (Rattus norvegicus, UniProt P15207); assay: COS-7 Whole-Cell Androgen Receptor Binding Assay, Adenovirus Transduction; details: COS binding; 3000 nM unless otherwise noted
T2 construct: expressed in transfected cells
T2 sequence (P15207 1-902): T1 sequence (P15207 1-902)
Description: COS-7 cells were plated in 96-well plates at 20,000 cells per well, in a solution of DMEM/F12 (GIBCO) containing 10% (v/v) charcoal-treated fetal bovine serum (Hyclone) and lacking phenol red. The cells were then incubated overnight at 37° C. in 5% (v/v) humidified CO2.
Test compound solutions were prepared by diluting the test compound in 100% (v/v) DMSO, if necessary.
Next, 1 mL of DMEM/F12 lacking phenol red was pipetted into each of the wells of a 2-mL 96-well assay block. […] The wells were carefully mixed by pipette.
In a 15 mL or 50 mL sterile centrifuge tube, a dilution in DMEM/F12 of the adenovirus AdEasy+rAR at a moi of 1:50 per well was prepared.
The medium was removed from the 96-well plates by inversion and the plates dried very briefly, inverted, on a sterile towel. As soon as possible after medium removal, 40 μL of the diluted test compound was added to each well, in duplicate. […] The plates were then incubated for 48 hours at 37° C. in 5% (v/v) humidified CO2.
The medium was removed from the above incubated plates by inversion and dried. Each well was then washed with 0.35 mL of 1×PBS. The PBS was then removed from the plates by inversion and the plates dried.
To each well was then added 50 μL of 0.5% (v/v) Triton X-100 (Sigma) in 1×PBS and the plates placed on a rotary shaker for 5 min. The contents of each well were then transferred to an OptiPlate-96 (Packard) scintillation plate. To each well was then added 0.2 mL of Microscint-20 (Packard) and the wells counted on a TopCount (Packard).
[…] Counts per well were measured and percents of inhibition determined. […] Counts per well were measured and IC50s determined by linear regression.

Compound	% Activity ([1]; 3000 nM) [%]	active / inactive (inhibition of testosterone-enhanced prostate weight) [2]	inhibition at 3 µM [3] [%]	% Inhibition [3]	further results
CC(O)(CCS(C)(=O)=O)c1cc2cc([N+](=O)[O-])c(C(F)(F)F)cc2[nH]1 (stereo not drawn) [compound 49]	2	inactive	30		
CCSCC(C)(O)c1[nH]c2cc(C(F)(F)F)c(C#N)cc2c1C (single isomer, unassigned) [Compound #233, 2-(2-Ethylsulfanyl-1-hydroxy-1-methyl-ethyl)-3-methyl-6-trifluoromethyl-1H-indole-5-carbonitrile]		active		95% and 81%	% Activity ([1]; 3000 nM, 3 µM): 0%
CC(O)(CSC1CCCC1)c1cc2cc([N+](=O)[O-])c(C(F)(F)F)cc2[nH]1 (stereo not drawn) [compound 173]	2	inactive	17		
CSCC(C)(O)c1cc2cc(C#N)c(C(F)(F)F)cc2[nH]1 (stereo not drawn) [compound 136]	0	active	4.8		
CCCS(=O)(=O)CC(C)(O)c1cc2cc([N+](=O)[O-])c(C(F)(F)F)cc2[nH]1 (stereo not drawn) [compound 177]	2	active	90		
CCC(O)(CS(=O)(=O)CC(F)(F)F)c1[nH]c2cc(C(F)(F)F)c([N+](=O)[O-])cc2c1Cl (stereo not drawn) [compound 199]	2	inactive	82		
CC(O)(CSc1ccc(C(=O)O)cc1)c1cc2cc(Cl)c(C(F)(F)F)cc2[nH]1 (stereo not drawn) [compound 133]	−4		65		
CC(O)(CS(=O)(=O)c1ccc(N)cc1)c1cc2cc(Cl)c(C(F)(F)F)cc2[nH]1 (stereo not drawn) [compound 118]		inactive	62		% Activity ([1]; @ 8000 nM): −2 @ 8000 nM %
CSCC(C)(O)c1cc2cc([N+](=O)[O-])c(C(F)(F)F)cc2[nH]1 (single isomer, unassigned) [compound 145]				84.7%	% Activity ([1]; 3000 nM, 3 µM): 1%
CC(O)(CSc1ccc([N+](=O)[O-])cc1)c1cc2cc(Cl)c(C(F)(F)F)cc2[nH]1 (stereo not drawn) [compound 122]	10		66		
CC(O)(CS(=O)(=O)c1ccc(O)cc1)c1cc2cc(Cl)c(C(F)(F)F)cc2[nH]1 (stereo not drawn) [compound 121]	−4		72		
CCSCC(C)(O)c1cc2cc(C#N)c(Cl)cc2[nH]1 (stereo not drawn) [compound 225]	1		82		
CC(O)(CSc1ccc(C(=O)O)cc1)c1cc2cc(Cl)c(C(F)(F)F)cc2n1S(C)(=O)=O (stereo not drawn) [compound 132]	−5		8.7		
CC(O)(CS(C)(=O)=O)c1cc2cc([N+](=O)[O-])c(C(F)(F)F)cc2[nH]1 (stereo not drawn) [compound 148]	0			32%	
CC(O)(CS(C)(=O)=O)c1cc2cc([N+](=O)[O-])c(C(F)(F)F)cc2[nH]1 (stereo not drawn) [compound 147]	0			6.1%	
CCSCC(C)(O)c1cc2cc([N+](=O)[O-])c(C(F)(F)F)cc2[nH]1 (single isomer, unassigned) [compound 149]				63% and 78%	% Activity ([1]; 3000 nM, 3 µM): 2%
CCSCC(C)(O)c1cc2cc([N+](=O)[O-])c(C(F)(F)F)cc2[nH]1 (single isomer, unassigned) [compound 150]				81% and 74%	% Activity ([1]; @ 8000 nM): 0 @ 8000 nM %
COc1ccc(S(=O)(=O)CC(C)(O)c2cc3cc(Cl)c(C(F)(F)F)cc3n2S(C)(=O)=O)cc1 (stereo not drawn) [compound 128]	−4		21		
CC(O)(CS(C)(=O)=O)c1cc2cc(Cl)c(C(F)(F)F)cc2n1S(C)(=O)=O (stereo not drawn) [compound 137]	0		73		
CCS(=O)(=O)CC(C)(O)c1cc2cc([N+](=O)[O-])c(C(F)(F)F)cc2[nH]1 (stereo not drawn) [compound 151]				55%	% Activity ([1]; @ 8000 nM): −1 @ 8000 nM %
CCSCC(C)(O)c1cc2cc(Cl)ccc2n1S(C)(=O)=O (racemic) [compound 154]	2			50%	% Inhibition ([1]; L929 antagonist testing with R1881, 3000 nM): 7%
CCSCC(C)(O)c1cc2cc(Cl)c(C(F)(F)F)cc2[nH]1 (stereo not drawn) [compound 152]		inactive	39		
CC(O)(CSc1ccc(O)cc1)c1cc2cc(Cl)c(C(F)(F)F)cc2[nH]1 (stereo not drawn) [compound 120]	−5		86		
